Source: ChEMBL document CHEMBL1201862, “PubChem BioAssay data set” (2004)
The source made the active and inactive calls.

Legend:
[1] = Luminescence Cell-Based Dose Retest to Confirm Inhibitors of Cancer Stem Cells. [Related pubchem assays (depositor defined):AID2717, AID2721]; type: functional; conditions: Homo sapiens
[2] = target: T1, Heat shock factor protein 1 (Mus musculus, UniProt P38532); assay: HSF1 potentiators in luciferase reporter cells, confirmation, cell-based, NIH3T3, luminescence, dose retest (AID 435004); type: functional;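 also: stress induced by proteasome inhibitor MG132 added 30 min after compound; luciferase reporter driven by HSF1 response element in NIH3T3 cells; actives raise luminescence as potentiators of the MG132 stress response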
T1 sequence (P38532 whole entry): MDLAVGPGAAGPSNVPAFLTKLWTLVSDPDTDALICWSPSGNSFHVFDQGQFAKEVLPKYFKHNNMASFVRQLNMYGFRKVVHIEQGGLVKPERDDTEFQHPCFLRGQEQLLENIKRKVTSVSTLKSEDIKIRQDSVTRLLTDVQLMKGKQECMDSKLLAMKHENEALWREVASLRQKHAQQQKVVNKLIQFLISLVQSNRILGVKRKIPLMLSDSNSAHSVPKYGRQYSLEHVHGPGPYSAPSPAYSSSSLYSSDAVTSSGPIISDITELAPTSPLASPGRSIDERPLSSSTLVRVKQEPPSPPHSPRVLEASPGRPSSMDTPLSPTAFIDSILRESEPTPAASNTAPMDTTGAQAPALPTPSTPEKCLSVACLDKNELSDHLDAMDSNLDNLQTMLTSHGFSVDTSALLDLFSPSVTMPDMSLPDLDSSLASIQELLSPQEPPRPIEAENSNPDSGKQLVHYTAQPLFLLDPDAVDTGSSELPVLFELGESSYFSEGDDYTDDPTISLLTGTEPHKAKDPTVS

[3] = target: T2, RNA-binding protein pos-1 (Caenorhabditis elegans, UniProt G5EF15); assay: inhibitors of POS-1/mex-3 RNA binding, dose response, biochemical, fluorescence polarization (AID 1964);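 also: purified POS-1 fused to maltose binding protein made in E. coli; potency of compounds blocking POS-1 binding to fluorescent RNA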
T2 sequence (G5EF15 whole entry): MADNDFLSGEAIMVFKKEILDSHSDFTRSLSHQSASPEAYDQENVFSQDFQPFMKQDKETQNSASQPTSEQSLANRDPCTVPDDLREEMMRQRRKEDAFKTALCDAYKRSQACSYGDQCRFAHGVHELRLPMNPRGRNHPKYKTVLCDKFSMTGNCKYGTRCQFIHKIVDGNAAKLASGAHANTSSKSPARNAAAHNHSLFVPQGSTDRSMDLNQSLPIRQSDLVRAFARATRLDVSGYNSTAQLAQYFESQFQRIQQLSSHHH

[4] = target: T3, Zinc finger protein mex-5 (Caenorhabditis elegans, UniProt Q9XUB2); assay: MEX-5/TCR-2 RNA interaction inhibitors, dose response, biochemical, C. elegans, fluorescence polarization (AID 1960)
T3 sequence (Q9XUB2 whole entry): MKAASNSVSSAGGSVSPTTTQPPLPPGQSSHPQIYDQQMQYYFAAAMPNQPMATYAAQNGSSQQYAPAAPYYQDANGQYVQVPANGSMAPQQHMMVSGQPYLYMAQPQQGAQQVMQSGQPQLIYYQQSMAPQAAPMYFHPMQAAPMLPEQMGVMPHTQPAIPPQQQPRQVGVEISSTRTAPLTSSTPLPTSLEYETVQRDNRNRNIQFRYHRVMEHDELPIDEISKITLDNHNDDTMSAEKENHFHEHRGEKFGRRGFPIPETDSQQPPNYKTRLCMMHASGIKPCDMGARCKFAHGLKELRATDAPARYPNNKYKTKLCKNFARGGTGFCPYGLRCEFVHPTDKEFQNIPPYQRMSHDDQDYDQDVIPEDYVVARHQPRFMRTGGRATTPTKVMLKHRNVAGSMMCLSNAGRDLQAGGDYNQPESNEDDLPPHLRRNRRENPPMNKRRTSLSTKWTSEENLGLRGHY

[5] = target: T4, Protein RecA (Mycobacterium tuberculosis, UniProt P9WHJ3); assay: Fluorescence Cell-Free Homogeneous Dose Retest to Identify Inhibitors of RecA-Intein Splicing Activity. [Related pubchem assays (depositor defined):AID2097, AID2223, AID489010, AID492950]; type: functional
T4 sequence (P9WHJ3 whole entry): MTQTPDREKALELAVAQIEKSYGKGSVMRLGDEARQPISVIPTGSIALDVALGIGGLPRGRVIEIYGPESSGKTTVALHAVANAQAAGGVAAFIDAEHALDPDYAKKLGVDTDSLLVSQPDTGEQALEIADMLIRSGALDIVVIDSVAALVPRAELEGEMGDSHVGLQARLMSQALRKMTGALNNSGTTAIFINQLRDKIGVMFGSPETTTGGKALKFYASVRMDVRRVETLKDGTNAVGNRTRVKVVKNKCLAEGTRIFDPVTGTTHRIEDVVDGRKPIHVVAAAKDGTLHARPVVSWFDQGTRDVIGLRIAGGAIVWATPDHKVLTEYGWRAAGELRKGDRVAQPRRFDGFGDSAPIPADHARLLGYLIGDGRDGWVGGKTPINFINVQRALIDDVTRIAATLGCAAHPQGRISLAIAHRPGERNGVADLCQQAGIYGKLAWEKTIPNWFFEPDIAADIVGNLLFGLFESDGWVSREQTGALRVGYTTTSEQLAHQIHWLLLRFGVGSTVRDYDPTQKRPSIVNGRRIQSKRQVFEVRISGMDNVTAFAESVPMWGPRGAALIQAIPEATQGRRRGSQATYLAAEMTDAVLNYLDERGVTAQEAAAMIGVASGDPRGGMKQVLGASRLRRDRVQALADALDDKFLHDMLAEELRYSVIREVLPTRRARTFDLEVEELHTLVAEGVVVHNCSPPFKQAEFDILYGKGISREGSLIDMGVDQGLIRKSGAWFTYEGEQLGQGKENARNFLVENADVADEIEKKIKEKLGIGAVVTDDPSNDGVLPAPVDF

[6] = growth suppression of PTEN-null colon cells, dose response, cell-based, HCT116 PTEN knockout (AID 1047); type: functional;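 also: HCT116 colon tumor cells with PTEN knocked out; cells exposed to compound for 60 hours before readout; potency for loss of cell viability measured by luminescence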
[7] = growth suppression of beta-catenin-knockout colon cells, dose response, cell-based, HCT116, human colon tumor (AID 1045); type: functional;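 also: HCT116 colon tumor cells with beta catenin knocked out; cells exposed to compound for 60 hours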
[8] = target: T5, Replicative DNA helicase DnaB (Mycobacterium tuberculosis, UniProt P9WMR3); assay: DnaB intein splicing inhibitors, dose response, biochemical, cell-free fluorescence (AID 449749); type: functional
T5 sequence (P9WMR3 whole entry): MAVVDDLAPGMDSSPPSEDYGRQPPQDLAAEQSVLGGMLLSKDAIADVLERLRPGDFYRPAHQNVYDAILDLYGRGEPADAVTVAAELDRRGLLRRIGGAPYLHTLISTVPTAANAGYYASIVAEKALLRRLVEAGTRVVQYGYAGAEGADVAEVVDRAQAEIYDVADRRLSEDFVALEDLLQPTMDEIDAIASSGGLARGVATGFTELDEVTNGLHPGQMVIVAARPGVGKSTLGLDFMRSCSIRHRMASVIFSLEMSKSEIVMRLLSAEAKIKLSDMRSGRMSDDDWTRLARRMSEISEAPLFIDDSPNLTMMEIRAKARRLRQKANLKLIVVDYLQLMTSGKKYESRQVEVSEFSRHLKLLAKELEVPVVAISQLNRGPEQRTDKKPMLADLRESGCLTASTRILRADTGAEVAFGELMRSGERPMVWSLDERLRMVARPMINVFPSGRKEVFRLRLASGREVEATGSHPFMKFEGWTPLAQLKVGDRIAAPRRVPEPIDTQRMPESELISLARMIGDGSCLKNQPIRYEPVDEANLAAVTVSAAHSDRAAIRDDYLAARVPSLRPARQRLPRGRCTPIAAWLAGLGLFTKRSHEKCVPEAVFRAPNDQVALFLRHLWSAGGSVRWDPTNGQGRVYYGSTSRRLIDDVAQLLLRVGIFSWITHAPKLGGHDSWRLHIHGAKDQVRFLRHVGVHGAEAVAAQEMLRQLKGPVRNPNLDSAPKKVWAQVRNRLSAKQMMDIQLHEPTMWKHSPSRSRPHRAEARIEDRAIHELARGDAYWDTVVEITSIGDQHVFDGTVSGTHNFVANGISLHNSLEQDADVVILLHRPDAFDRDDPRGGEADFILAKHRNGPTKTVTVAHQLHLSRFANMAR

[9] = target: Cytochrome P450 2C19 (Homo sapiens, UniProt P33261); assay: Cytochrome panel assay with activity outcomes. Panel member name: p450-cyp2c19 Compounds with AC50 equal or less than 10 uM are considered active; type: functional; conditions: read-out: AC50
[10] = target: T6, Corticotropin-releasing factor receptor 2/Corticotropin-releasing factor-binding protein (Homo sapiens, UniProt P24387+Q13324); assay: activators of CRF receptor 2 with binding protein – uHTS hits, confirmation (AID 602473); type: functional; conditions: read-out: EC50_Mean
T6 sequence (Q13324 whole entry): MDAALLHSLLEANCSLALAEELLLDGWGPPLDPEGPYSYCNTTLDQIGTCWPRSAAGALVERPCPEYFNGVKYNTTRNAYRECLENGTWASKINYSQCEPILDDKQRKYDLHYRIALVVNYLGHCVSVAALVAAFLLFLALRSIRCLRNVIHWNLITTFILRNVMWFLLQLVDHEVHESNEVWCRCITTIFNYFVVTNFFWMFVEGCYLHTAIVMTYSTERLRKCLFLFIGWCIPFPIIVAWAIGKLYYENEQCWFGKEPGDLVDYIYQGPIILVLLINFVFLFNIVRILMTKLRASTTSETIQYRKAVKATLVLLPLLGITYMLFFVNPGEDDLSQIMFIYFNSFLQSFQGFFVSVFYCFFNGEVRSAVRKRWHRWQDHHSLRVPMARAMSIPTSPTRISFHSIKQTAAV
T6 sequence (P24387 whole entry): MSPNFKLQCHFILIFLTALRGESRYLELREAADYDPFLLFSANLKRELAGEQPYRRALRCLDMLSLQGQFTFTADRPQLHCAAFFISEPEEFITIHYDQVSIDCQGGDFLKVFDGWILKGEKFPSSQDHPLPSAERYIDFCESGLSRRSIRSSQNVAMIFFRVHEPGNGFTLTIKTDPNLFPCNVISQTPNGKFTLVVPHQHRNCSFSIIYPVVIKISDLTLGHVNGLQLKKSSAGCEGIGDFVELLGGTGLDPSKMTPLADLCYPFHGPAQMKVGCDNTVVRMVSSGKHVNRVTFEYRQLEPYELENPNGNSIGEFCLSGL

[11] = target: T7, Cytochrome P450 1A2 (Homo sapiens, UniProt P05177);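 also: PubChem cytochrome P450 panel assay, CYP1A2 panel member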
T7 sequence (P05177 whole entry): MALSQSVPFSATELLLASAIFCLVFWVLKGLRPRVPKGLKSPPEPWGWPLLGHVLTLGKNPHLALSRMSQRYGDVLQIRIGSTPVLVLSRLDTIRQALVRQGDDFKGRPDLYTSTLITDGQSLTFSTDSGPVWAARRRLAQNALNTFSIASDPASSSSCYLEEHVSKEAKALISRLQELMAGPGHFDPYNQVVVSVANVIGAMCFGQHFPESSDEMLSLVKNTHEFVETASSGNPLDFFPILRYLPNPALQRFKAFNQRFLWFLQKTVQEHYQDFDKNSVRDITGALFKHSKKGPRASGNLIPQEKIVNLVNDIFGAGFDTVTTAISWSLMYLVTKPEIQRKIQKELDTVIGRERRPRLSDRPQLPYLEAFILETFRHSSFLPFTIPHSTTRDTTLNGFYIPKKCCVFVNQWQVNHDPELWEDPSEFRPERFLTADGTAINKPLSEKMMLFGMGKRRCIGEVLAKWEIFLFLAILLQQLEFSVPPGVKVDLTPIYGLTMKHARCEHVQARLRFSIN

[12] = target: Cytochrome P450 2D6 (Homo sapiens, UniProt P10635);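 also: CYP2D6 member of a cytochrome P450 panel assay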
[13] = inhibitors of intracellular T. cruzi replication, confirmation, NIH3T3 host cells, beta-gal luminescence (AID 2044); type: functional, cell-based;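 also: intracellular parasites grown in NIH/3T3 mouse fibroblasts as host cells; luminescent beta-galactosidase reporter signal from transgenic T. cruzi replicating inside host cells; inhibitors lower the luminescence signal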
[14] = cytotoxicity toward NIH3T3 fibroblasts, dose response, counter-screen, cell-based, ATP luminescence, mouse fibroblasts (AID 2010); type: functional;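 also: cells exposed to compound for about 90 hours before reading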

Cytochrome P450 2C19, sequence (P33261 whole entry): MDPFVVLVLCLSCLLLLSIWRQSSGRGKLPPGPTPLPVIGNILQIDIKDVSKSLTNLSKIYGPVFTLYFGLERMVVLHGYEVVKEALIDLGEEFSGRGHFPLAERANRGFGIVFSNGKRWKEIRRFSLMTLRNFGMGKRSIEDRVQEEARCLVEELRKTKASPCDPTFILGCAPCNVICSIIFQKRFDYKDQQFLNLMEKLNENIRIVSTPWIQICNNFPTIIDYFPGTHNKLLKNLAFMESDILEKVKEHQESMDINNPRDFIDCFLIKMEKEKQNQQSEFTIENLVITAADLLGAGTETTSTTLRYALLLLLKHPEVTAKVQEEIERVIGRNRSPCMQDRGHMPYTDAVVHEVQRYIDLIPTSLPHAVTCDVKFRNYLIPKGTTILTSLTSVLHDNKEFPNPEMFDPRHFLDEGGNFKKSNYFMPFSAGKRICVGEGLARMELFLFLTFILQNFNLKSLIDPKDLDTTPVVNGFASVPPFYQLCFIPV
Cytochrome P450 2D6, sequence (P10635 whole entry): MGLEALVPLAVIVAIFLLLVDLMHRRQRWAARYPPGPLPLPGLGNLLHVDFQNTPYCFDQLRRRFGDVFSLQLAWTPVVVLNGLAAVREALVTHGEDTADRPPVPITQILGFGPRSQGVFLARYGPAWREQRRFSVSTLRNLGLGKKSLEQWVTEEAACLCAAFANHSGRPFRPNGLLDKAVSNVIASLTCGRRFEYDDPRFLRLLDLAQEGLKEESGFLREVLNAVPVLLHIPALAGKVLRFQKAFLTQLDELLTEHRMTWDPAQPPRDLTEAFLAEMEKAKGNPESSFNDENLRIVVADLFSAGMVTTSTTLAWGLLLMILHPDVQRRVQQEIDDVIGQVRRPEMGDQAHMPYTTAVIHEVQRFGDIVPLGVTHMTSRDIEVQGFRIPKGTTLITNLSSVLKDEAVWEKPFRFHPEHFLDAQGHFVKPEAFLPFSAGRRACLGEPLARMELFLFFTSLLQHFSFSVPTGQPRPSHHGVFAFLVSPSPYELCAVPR

## Clc1ccc(CO/N=C/c2c(-c3ccccc3)nc3n2CCS3)c(Cl)c1
[1]
  AC50: 2.22 µM (active)
[2]
  EC50: > 260 µM (inactive)

## Cc1c(C(=O)O)cccc1-n1c(C)cc(/C=N/NC(=O)c2cc3ccccc3o2)c1C
[3]
  EC50: > 300 µM (not active)
[4]
  EC50: > 300 µM (not active)

## Cc1nnc(S/C(=C/c2ccc(-c3cc(Cl)ccc3C)o2)C(=O)O)[nH]1
[3]
  EC50: 38.4 µM (active)
[4]
  EC50: 31 µM (active)

## FC(F)(F)c1nnc(-c2ccccc2)nc1Sc1ccccc1
[5]
  EC50: 9.56 µM (active)
[6]
  EC50: 18.7 µM (active)
[7]
  EC50: 17.3 µM (active)
[8]
  AC50: 19.3 µM (active)
[2]
  EC50: 4.22 µM (inconclusive)
[9]
  AC50: 0.00355 µM (inconclusive)

## COc1cccc(-n2nc(C#N)c(Cl)cc2=O)c1
[5]
  EC50: 4.38 µM (active)
[8]
  AC50: 2.49 µM (active)
[2]
  EC50: 10.7 µM (active)

## O=C(NCc1ccccc1)C1Nc2ccc(OC(F)(F)F)cc2C2C=CCC12 (configuration not stated)
[3]
  EC50: > 300 µM (not active)
[4]
  EC50: > 300 µM (not active)

## COC(=O)C1=C(C)N(c2ccccc2)/C(=C/c2ccco2)C1=O
[3]
  EC50: 99 µM (active)
[4]
  EC50: 5.06 µM (active)

## CC1=CC(C)(C)N2C(=O)C3(C(C#N)=C(N)OC4=C3C(=O)CC(C)(C)C4)c3cccc1c32 (configuration not stated)
[3]
  EC50: > 300 µM (not active)
[4]
  EC50: > 300 µM (not active)

## CCOC(=O)C1=C(N)Oc2c(c(O)nc3ccccc23)C1c1ccccc1 (configuration not stated)
[6]
  EC50: 53.5 µM (active)
[7]
  EC50: 94.3 µM (active)

## CCOC(=O)c1nn(-c2ccc(C)cc2)c2nc(Nc3ccccc3)cc(=O)n12
[3]
  EC50: 78.2 µM (active)
[4]
  EC50: > 300 µM (not active)

## CCOC(=O)C1=NN(C(=O)c2ccccc2)C(O)(c2ccc(C)cc2)C1 (configuration not stated)
[10]
  EC50: 13.5 µM (active)
[2]
  EC50: > 260 µM (inactive)

## O=P(Nc1ccccc1)(Nc1ccccc1)Oc1cccc(Cl)c1
[6]
  EC50: 134 µM (active)
[7]
  EC50: 239 µM (active)
[11]
  AC50: 15.8 µM (inconclusive)
[12]
  AC50: 15.8 µM (inconclusive)

## Cc1ccc(-c2nc(NC(=O)c3ccc(S(=O)(=O)N(CCC#N)CCC#N)cc3)sc2-c2ccccc2)cc1
[13]
  EC50: 2.02 µM (active)
[6]
  EC50: 17 µM (active)
[7]
  EC50: 17.3 µM (active)
[14]
  EC50: > 60 µM (not active)

## CN(C)c1ccc(N/C=C2/C(=O)NC(=O)N(CCC3=CCCCC3)C2=O)cc1
[3]
  EC50: > 300 µM (not active)
[4]
  EC50: > 300 µM (not active)
